The record followed here is PubChem BioAssay (NCI).

Common to all, as to assay: inhibition of tumour cell growth, NCI panel, 48 h
The test system of test [1] is NCI-H226 lung.
In test [2] the test system is UO-31 renal.
Test [3] deals with SK-MEL-5 melanoma.
In test [4] the test system is K-562 leukemia.
The test system of test [5] is M14 melanoma.
Test [6] deals with SNB-75 CNS.
Test [7] has as its system T-47D breast.
In test [8] the test system is SK-MEL-2 melanoma.
The test system of test [9] is OVCAR-8 ovarian.
For test [10], the system named is SNB-19 CNS.

Values joined by “and” are separate entries in the source; they are usually repeats but may differ in a detail not shown here. Equal values may be shown once.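 Grown in 96-well plates, cells were treated for 48 hours with each compound at five concentrations. Insufficient inhibition: endpoint recorded as highest concentration tested. GI50 = concentration required for 50% inhibition of growth. The concentration for full growth arrest is given as TGI.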 Where only a bound is given, the exact number is not on record here.

As for `OCC1OC(n2cnc3c(N/N=C\c4ccccn4)ncnc32)C(O)C1O` (stereo not drawn), the GI50 in [1] was 0.525 µM; in [2], 0.235 µM; in test [3] it was 0.398 µM; in [4], 0.368 µM; in test [5] it was 0.426 µM; in [6] it was 0.613 µM. Also, the GI50 in [7] was 0.282 µM; in test [8], 0.611 µM; in test [9] it was 0.164 µM; in test [10], 0.364 µM. Also, the TGI in test [1] is over 100 µM; in test [2] it was 1.44 µM; in [3] it was 2.29 µM; in [4], over 100 µM; in test [5], 3.89 µM; in [6], 12.9 µM. In addition, the TGI in [7] was 21 µM; in test [8], over 100 µM; in test [9], 53.7 µM; in test [10] it was over 100 µM.

Consider `C=CC(=O)Nc1cccc(Oc2nc(Nc3ccc(N4CCN(C)CC4)cc3)nc3ccsc23)c1`, for which the GI50 in test [1] is 8.23 µM and 10.4 µM; in [2], 0.962 µM and 1.11 µM; in test [3] it was 1.64 µM and 1.75 µM; in test [4], 2.03 µM and 2.15 µM; in [5], 1.87 µM and 2.01 µM; in [6], 1.54 µM and 2.1 µM. Further, the GI50 is 9.72 µM and 5.29 µM in [7]; 2.85 µM and 2.49 µM in test [8]; 3.59 µM and 3.63 µM in test [9]; 3.51 µM and 3.35 µM in [10]. Besides, the TGI in test [1] is > 10 µM and 36.9 µM; in [2], 3.69 µM and 3.38 µM; in [3], 3.05 µM and 3.16 µM; in test [4], 4.97 µM and 4.87 µM; in [5], 3.75 µM and 3.8 µM; in test [6], > 10 µM and 10.5 µM. The TGI in [7] is > 10 µM and 27 µM; in test [8], 8.48 µM and 5 µM; in [9] it was > 10 µM and 11.7 µM; in test [10], > 10 µM and 14.1 µM.

As for `NC(=O)c1csc(C2OC(CO)C(O)C2O)n1` (stereo not drawn), the GI50 was 99.2 µM in test [1]; 44.6 µM in test [2]; over 31.6 µM in test [3]; 8.88 µM in test [4]; 10.2 µM in test [5]; 26.5 µM and 40.8 µM in [6]. Also, the figures for the GI50 in test [9] and in test [10] were 31.1 µM and 65.7 µM, respectively. Also, the TGI was over 9450 µM in test [1]; 1740 µM in test [2]; > 31.6 µM and 8280 µM in test [3]; 7060 µM in [4]; 5650 µM in [5]; 7140 µM in test [6]. The TGI in test [7] was over 5620 µM; in test [8], 6440 µM; in test [9], 1570 µM; in test [10] it was 7290 µM.

Take `CN1CCN(C(=O)c2cc(-c3ccc4ncnc(N5CCc6cc(F)c(Cl)cc65)c4c3)cnc2N)CC1`: the GI50 in test [1] was 0.309 µM; in [2] it was 0.0996 µM; in test [3] it was 0.209 µM; in test [4], 0.234 µM; in test [5], 0.338 µM; in [6], 0.0512 µM. The GI50 in test [7] is 0.0651 µM; in test [8] it was 0.238 µM; in test [9], 0.29 µM; in test [10], 0.413 µM. For the same compound, the TGI in test [1] amounted to 2.76 µM; in test [2], 4.42 µM; in test [3] it was 0.476 µM; in test [4], 11.7 µM; in test [5], 4.75 µM; in test [6], 0.704 µM. Besides, the TGI in [7] stood at 1.84 µM; in [8], 1.02 µM; in test [9], 24.1 µM; in [10], 10.5 µM.

Consider `O=C1OCC2=C1C(c1ccc(Cl)c(Cl)c1)c1cc3c(cc1N2CCO)OCCO3` (stereo not drawn), for which the GI50 in [1] is 0.29 µM; in [2], 0.256 µM; in test [3] it was 0.148 µM; in test [4], 0.211 µM; in test [5] it was 0.264 µM; in test [6], 0.128 µM. In addition, the GI50 in [7] is 0.282 µM; in [8], 0.137 µM; in test [9], 0.389 µM; in test [10] it was 0.327 µM. Moreover, the TGI in [1] was 7.71 µM; in [2] it was 30.6 µM; in test [3], 6.37 µM; in [4], over 22.6 µM; in [5], 5.65 µM; in test [6] it was 9.2 µM. Further, the TGI in [7] is over 50 µM; in [8], 1.11 µM; in [9] it was 7.24 µM; in test [10] it was over 50 µM.

With `CCCCCCCCCCCCCCCCCC[n+]1ccc2c(C)c3c(c(C)c2c1)c1cc(O)ccc1n3CC`, the GI50 in [1] was 1.88 µM; in test [2], 3.39 µM; in [3] it was 1.34 µM; in [4] it was 1.1 µM; in test [5], 1.43 µM; in test [6] it was 2.27 µM. For the same compound, the GI50 in [7] was 2.57 µM; in test [8], 1.58 µM; in test [9], 1.71 µM; in test [10], 1.79 µM. The TGI came to 8.68 µM in test [1]; 18.7 µM in test [2]; 2.85 µM in test [3]; 9.13 µM in test [4]; 3.34 µM in test [5]; 12 µM in [6]. Besides, the TGI in test [7] came out at 27.3 µM; in test [8], 3.27 µM; in [9] it was 6.53 µM; in [10], 6.36 µM.

As for `O=C(O)CN1CCN(CC(=O)O)CC(=O)[O][Hg][O]C(=O)C1`, the GI50 is over 100 µM in test [1]; 17.5 µM in test [2]; 20.5 µM in test [3]; 17.9 µM in [4]; 16.4 µM in test [5]; 23.6 µM in test [6]. Also, the GI50 is 17 µM in test [7], 15.5 µM in test [8], 22.4 µM in [9] and 29.8 µM in [10]. For the same compound, the TGI in test [1] was over 100 µM; in [2], 31.4 µM; in [3], over 57 µM; in [4] it was 44.6 µM; in test [5], 31 µM; in test [6], 66.5 µM. In addition, the TGI in test [7] was 43.2 µM; in [8], 29.6 µM; in test [9], 49.4 µM; in test [10] it was over 100 µM.
